pEC50: −log10 of the molar value. Where “and” joins values, the source holds several entries; their conditions need not be identical. Identical values can stand only once. Non-standard residues stand in square brackets, D forms with d. Residues, ends and D or L forms follow the SMILES beside them. aThr = C[C@H](O)[C@H](N)C(=O)O; dPra = C#CC[C@@H](N)C(=O)O; dDap = NC[C@@H](N)C(=O)O
How the values were obtained:
[1] = tested on: proteasome; conditions: background statement; cited from earlier work
[2] = tested on: human red blood cells; test: Hemolysis assay; format: cell-based; conditions: percent hemolysis, 1 hour at 37° C., table title 15 uM, method 20 μM, in %
Method: Whole human blood was purchased at BiolVT and used prior to its expiration. 100 μL blood was added to a 1.5 mL Eppendorf tub with 500 μL of sterile 0.9% NaCl. The tube was inverted multiple times to mix the solution. This mixture was centrifuged at 500 g for 7 minutes. The supernatant was extracted utilizing a pipette. The pellet was washed 2 more times. After the final wash, 800 μL of Red Blood Cell (RBC) buffer was added to the pellet to resuspend the red blood cells. 4 μL of the compounds (20 μM in DMSO, final concentration), 76 μL RBC buffer, and 40 μL resuspended red blood cells were added to a 96 U-well plate (VWR) and incubated for 1 hour at 37° C. The plate was spun at 500 g for 5 minutes. […] of the supernatant was transferred to a 96 flat-well plate. The absorbance was read at 540 nm utilizing a SpectraMax iD3 platereader. Percent hemolysis was measured from the average absorbance of the positive and negative controls. A minimum of 3 biological triplicates were performed.

[3] = target: T1, 20S CP; test: TAS-1 biochemical assay (20S CP stimulation); set-up: key to Emax: % of DMSO control rate (percent stimulation); key to TAS-1: % of DMSO control rate of TAS-1 hydrolysis; conditions: for pEC50: dose-response curve; for pEC50 / Emax: 20S CP stimulation; for Emax: maximal response of dose-response curve, in %; for TAS-1: percent stimulation of 20S CP, rate of TAS-1 hydrolysis normalized against DMSO, compounds tested at 10 μM, 5 nM 20S CP
T1 construct: purchased South Bay
Method: Each compound was initially tested at 10 μM. Each well contained […] of 11.4 μM TAS-1 solution in Tris HCl (50 mM, pH 7.4) along with 5 nM of 20 sCP (South Bay). 1 μL of the test compound, control, or DMSO was added to the desired well to obtain a final DMSO concentration of 2%, with the total volume being 50 μL. Compounds were tested in three replicates that each had technical triplicates. The fluorescence was recorded using a SynergyNeo 2, where the excitation and emission was set to 335 nm and 493 nm. The plate reader was heated to 37° C. The fluorescence was recorded every 90 seconds over a 1-hour period. A simple linear regression was performed on the data plotted against time to obtain the rate of hydrolysis of TAS-1 by the 20S CP. The data was then normalized against DMSO to get the percent stimulation.

[4] = tested on: T2, cytosolic proteasome in HEK293 T cells; test: Flow cytometry assay of proteasome stimulation in cellulo (epoxomicin probe); format: cell-based; conditions: for In-Cellulo: 10 μM stimulator, 2.5 μM epoxomicin probe, 1 hour, flow cytometry (FITC); for cellular stimulation of the proteasome (in words): 10 μM, flow cytometry
T2 construct: endogenous in cells; host or cells: HEK 293T
Description: Flow cytometry allows for the study of proteasomal activity in physiologically relevant conditions and presents a high-throughput alternative to traditional gel electrophoresis and western blotting techniques. To test the assay, the covalent fluorescent-based probe was applied in HEK293 T cells to quantify proteasome stimulation of CyPPSs alone and in the presence of the known proteasome stimulator miconazole and the known proteasome inhibitor MG132. The covalent fluorescent-based probe utilized an epoxy-ketone warhead that interacts with the β5 subunit of the proteasome, forming a covalent attachment and fluorescently tagging the proteasome. The addition of the CyPPSs induces a significant shift in the intracellular fluorescence (FIG. 6). This shift validated that CyPPSs can stimulate cytosolic proteasome in cellulo. […] However, their activity was lower than what would be expected based on their in vitro activity. This may be due to incomplete cellular uptake or escape from the endosomes. […] This is likely due to a combination of effects, including the inability to stimulate the proteasome (FIGS. 2A and 2B) as well as the generally poor cell permeability and stability of linear peptides.
Confluent HEK 293T cells were seeded into sterilized 2 mL Fisherbrand Eppendorf tubes in FBS free Dulbecco's Modified Eagle Medium (DMEM) at a concentration of 300,000 cells per tube. The cells were centrifuged at 1000 g for 5 minutes. The supernatant was removed, and the cells were resuspended in 500 μL of a 10 μM stimulator solution in FBS free DMEM. Cells were spun down at 1000 g for 5 minutes, and the supernatant was again removed. Cells were then resuspended in 500 μL of a 10 μM stimulator 2.5 μM epoxomicin probe in FBS-free DMEM and incubated for 1 hour at 37° C. Cells were again centrifuged at 1000 g for 5 minutes. Supernatant was then removed, and cells were washed once with cold PBS. Cells were then resuspended in 50 μL of cold PBS and placed on ice. Cellular fluorescence was measured by collecting 50,000 events using the FITC channel of a BD Accuri C6 Flow Cytometer and analyzed using FlowJo.

[5] = tested on: T1, 20S CP; test: Purified protein degradation assay; format: biochemical; conditions: 10 uM CyPPS, 5 nM 20S CP, 200 ng purified protein, 1 hour at 37° C.; for proteasomal degradation of α-synuclein: highly disordered protein; for proteasomal degradation of GAPDH / proteasomal degradation of lysozyme: low disordered protein
Method: Proteins were diluted to 50 ng/μL in Tris HCl (50 mM, pH 7.6). The CyPPS were diluted to 30 μM in Tris HCl, with 6% DMSO. The 20S CP (South Bay) was diluted to 15 nM with Tris HCl. Each protein was performed with a latent level, basal level, and CyPPS in triplicate. The latent level was prepared with 4 μL protein and 8 μL of 3% DMSO in Tris HCl. The basal level contained 4 μL protein, 4 μL 20S CP, and 4 μL 6% DMSO in Tris HCl. The CyPPS was performed with 4 μL protein, 4 μL 20S CP, and 4 μL 30 μM CyPPS. The samples were incubated for 1 hour at 37° C. 4 μL of 4×SDS gel loading buffer was added and heated for 5 minutes at 95° C. The samples were run on a 15-well gradient gel for SDS-PAGE, stained with Coomassie, imaged with an imaging system, and quantified with ImageJ. Analysis was done via GraphPad PRISM9.

[6] = tested on: proteasome; conditions: background statement; cited from earlier work; remark: listed apart in the source

Row | Compound | pEC50 [3] | percent stimulation of the proteasome in the SNaPP library screen ([3]; library of 45 cyclic peptides, TAS-1 assay) | Emax [3] | TAS-1 [3] | In-Cellulo [4] | proteasomal degradation of α-synuclein [5] | proteasomal degradation of GAPDH [5] | proteasomal degradation of lysozyme [5] | 20S CP stimulatory activity (in words, SAR compared to CyPPS1) ([3]; TAS-1 assay) | potency as proteasome stimulator (in words) [1] | Hemolysis [2] | cellular stimulation of the proteasome (in words) [4] | activity in cell-based assays (in words) [6]
1 | CCCCC/C=C\C/C=C\C/C=C\C/C=C\CCCC(=O)Nc1ccc(O)cc1 [AM-404] |  |  |  |  |  |  |  |  |  | lack of potency |  |  | 
2 | CC(C)c1ccc2c(c1)c(SC(C)(C)C)c(CC(C)(C)C(=O)O)n2Cc1ccc(Cl)cc1 [MK-866] |  |  |  |  |  |  |  |  |  |  |  |  | inactivity in cell-based assays
3 | CN(C)CCCN1c2ccccc2Sc2ccc(Cl)cc21 [chloropromazine] |  |  |  |  |  |  |  |  |  |  |  |  | inactivity in cell-based assays
4 | Clc1ccc(COC(Cn2ccnc2)c2ccc(Cl)cc2Cl)c(Cl)c1 (centres unmarked) [miconazole] |  |  |  |  |  |  |  |  |  | lack of potency |  |  | 
5 | C[C@H]1[C@H](C)CC[C@]2(C(=O)O)CC[C@]3(C)C(=CC[C@@H]4[C@@]5(C)CC[C@H](O)C(C)(C)[C@@H]5CC[C@]43C)[C@H]12 [ursolic acid] |  |  |  |  |  |  |  |  |  | lack of potency |  |  | 

The next lines start with results.

Row | pEC50 [3] | percent stimulation of the proteasome in the SNaPP library screen ([3]; library of 45 cyclic peptides, TAS-1 assay) | Emax [3] | TAS-1 [3] | In-Cellulo [4] | proteasomal degradation of α-synuclein [5] | proteasomal degradation of GAPDH [5] | proteasomal degradation of lysozyme [5] | 20S CP stimulatory activity (in words, SAR compared to CyPPS1) ([3]; TAS-1 assay) | Compound | potency as proteasome stimulator (in words) [1] | Hemolysis [2] | cellular stimulation of the proteasome (in words) [4] | activity in cell-based assays (in words) [6]
6 | 5.19 | highest percent stimulation | 282.9 | 339.5 ± 15.7 | 235.1 ± 5.5 | greatly enhanced | little-to-no effect | little-to-no effect |  | CC(C)C[C@H]1NC(=O)[C@H]([C@H](C)O)NC(=O)[C@@H](C)NC(=O)[C@H](CCCNC(=N)N)NC(=O)[C@@H](Cc2ccccc2)NC(=O)[C@H](Cc2ccccc2)NC1=O [CyPPS1, TLFFRA [SEQ ID NO: 1]] (cyclo(F[dF]R[dA][aThr][dL])) |  | 13 ± 1 | significant cellular stimulation of the proteasome | 
7 | 4.85 |  | 701.4 | 372.2 ± 12.1 | 161.0 ± 31.7 |  |  |  | maintained stimulatory activity | CC(C)C[C@H]1NC(=O)[C@H](CC(=O)O)NC(=O)[C@@H](C)NC(=O)[C@H](CCCNC(=N)N)NC(=O)[C@@H](Cc2ccccc2)NC(=O)[C@H](Cc2ccccc2)NC1=O [CyPPS8, DLFFRA [SEQ ID NO: 8]] (cyclo(D[dL]F[dF]R[dA])) |  | 0 ± 0 |  | 
8 | 5.39 and 5.40 |  | 393 and 393.8 | 422.4 ± 18.5 | 173.7 ± 13.0 |  |  |  | retained activity | CC(C)[C@H]1NC(=O)[C@H]([C@@H](C)O)NC(=O)[C@@H](C)NC(=O)[C@H](CCCNC(=N)N)NC(=O)[C@@H](Cc2ccccc2)NC(=O)[C@H](Cc2ccccc2)NC1=O [CyPPS13, TVFFRA [SEQ ID NO: 13]] (cyclo(T[dV]F[dF]R[dA])) |  | 5 ± 2 |  | 
9 | 4.92 |  | 513.6 | 387.9 ± 2.7 | 231.4 ± 31.7 | greatly enhanced | little-to-no effect | little-to-no effect | retained stimulatory activity | C#CC[C@H]1NC(=O)[C@H]([C@@H](C)O)NC(=O)[C@@H](C)NC(=O)[C@H](CCCNC(=N)N)NC(=O)[C@@H](Cc2ccccc2)NC(=O)[C@H](Cc2ccccc2)NC1=O [CyPPS14, TXFFRA [SEQ ID NO: 14]] (cyclo(T[dPra]F[dF]R[dA])) |  | 2 ± 1 | significant cellular stimulation of the proteasome | 
10 | 5.40 and 5.39 |  | 391 and 390.9 | 352.4 ± 39.1 | 247.3 ± 15.4 | greatly enhanced | little-to-no effect | little-to-no effect | maintained stimulatory activity | CC(C)C[C@H]1NC(=O)[C@H]([C@@H](C)O)NC(=O)[C@@H](CN)NC(=O)[C@H](CCCNC(=N)N)NC(=O)[C@@H](Cc2ccccc2)NC(=O)[C@H](Cc2ccccc2)NC1=O [CyPPS23, TLFFRX [SEQ ID NO: 23]] (cyclo(T[dL]F[dF]R[dDap])) |  | 20 ± 4 | significant cellular stimulation of the proteasome | 
